Like-named read-outs stand apart in the source and are kept apart here.
Columns and labels:
[1] = system: triple-negative breast cancer cell BT549; type: cell-based; set-up: % Cell Survival: concentration or dose not given beside the values; details: for % Cell Survival: BT549, 24 h compound treatment followed by 2 min light irradiation (1.92 J cm^−2); for dark toxicity / dark toxicity ranking: absence of light
Protocol: (§1) Human mammary epithelial carcinoma cell lines purchased from the American Type Culture Collection ZR-75-1 (ATCC CRL-1500) and BT-549 (ATCC HTB-122) were cultured according to ATCC protocol. Briefly, ZR-75-1 cells were grown in RPMI 1640 medium (ATCC), while BT-549 were grown in RPMI 1640 containing 0.023 IU/mL insulin. Both were supplemented with 10% fetal bovine serum (FBS). Cells were grown to 80-90% confluence in 75-cm^2 culture flasks (Corning) for 4-5 days in a humidified incubator (Fisher Scientific Isotemp) with 5% CO2 at 37° C. During the incubation period, growth media was changed once with fresh pre-warmed media (pH 7.2). To harvest the cells, old growth media was aspirated out and 3 mL 0.25% trypsin solution (Thermo Sci Hyclone) were added. The cells were incubated for 5 min and the cell pellet after centrifugation was resuspended in 3 mL media, broken up gently, then 1 ml of suspended cells was transferred into a new T75 cell culture flask containing pre-warmed media (20 mL) for further culturing.
(§2) Cells were grown to confluence in a 96-well plate (5×10^4 cells/well) and treated for 24 h with compounds or photosensitizers of varying concentrations ranging from 5 nM to 50 μM) in growth media from a stock solution of 10 mM in DMSO (dimethyl sulfoxide, Fisher). After 24 h treatment, old growth media containing the PS or compounds were aspirated out and replaced with fresh media. Plates were then positioned below a non-coherent LumaCare LC-122 650 nm light source for 1, 2, and 5 min at an energy fluence rate of 16 mW/cm^2 (measured using a Newport optical power meter Model 840). Unirradiated cells served as control samples. The following day, cells were washed with pre-warmed PBS, and MTT (3-[4,5-dimethyl-thiazol-2-yl]-2.5-diphenyltetrazolium bromide, Sigma, 0.3 mg/mL) in PBS was added to each well. Samples were allowed to incubate for additional 2 h, after which dark blue crystals formed. DMSO was added to each well and plates were shaken at room temperature for 1 h to dissolve the purplish-blue formazan crystals. Absorbance values at 490 nm were measured on a microplate reader (BioRad 550). Cell survival was calculated based on the absorbance of the untreated cells alone (as control) and were directly proportional to the number of viable cells in culture. Results were reported as average of triplicate measurements.

[2] = system: triple-positive breast cancer cell ZR-75-1; type: cell-based; set-up: % Cell Survival: concentration or dose not given beside the values; details: for % Cell Survival: ZR-75-1, 24 h compound treatment followed by 2 min light irradiation (1.92 J cm^−2); for dark toxicity ranking / dark toxicity: unirradiated TPBC cells
Protocol: as §1, §2

[3] = system: Mouse colon carcinoma cell line CT26.WT; assay: Cell survival (MTT) assay, CT26 colon carcinoma cells; type: cell-based
Protocol: Mouse colon carcinoma cell line CT26. WT was purchased from the American Type Culture Collection (ATCC CRL-2638). […] During the incubation period, growth media was changed once with fresh pre-warmed medium (pH 7.2). To harvest the cells, old growth media was aspirated and 5 mL 0.25% trypsin solution (Thermo Sci Hyclone, Waltham, Mass., USA) were added. The cells were incubated for 10 min and gently scraped to detach cells from the flask walls. Clumped cells were broken up gently and 1 mL of the trypsinized cell homogenate suspension was transferred into a new T75 cell culture flask containing pre-warmed media (20 mL) for further culturing. […] After 24 h treatment, old growth media containing the PS or compounds were aspirated out and replaced with fresh media. Plates were then positioned below a non-coherent LumaCare LC-122 650 nm light source for 1, 2, and 5 min at an energy fluence rate of 16 mW/cm^2 (measured using a Newport optical power meter Model 840). Unirradiated cells served as control samples. […] Samples were allowed to incubate for additional 2 h, after which dark blue crystals formed. DMSO was added to each well and plates were shaken at room temperature for 1 h to dissolve the purplish-blue formazan crystals. Absorbance values at 490 nm were measured on a microplate reader (BioRad 550). Cell survival was calculated based on the absorbance of the untreated cells alone (as control) and were directly proportional to the number of viable cells in culture. Results were reported as average of triplicate measurements.

[4] = system: triple-positive breast cancer cell ZR-75-1; assay: Fluorescence microscopy (Hoechst 33258), ZR-75-1 cells; type: cell-based, Human; details: 24 h compound treatment followed by 2 min light irradiation (1.92 J cm^−2)
Protocol: Fluorescence microscopy was used to visualize and examine the cell morphological features before and after photosensitization. Specific cellular characteristics can identify the mechanism of cell death which can be exploited to understand therapeutic outcome. […] After aspirating the old growth media, 1 mL of the compound or photosensitizer (with varying concentrations) in fresh pre-warmed media at 37° C. was added to each well. […] Images were recorded using fluorescence microscopy (DAPI for Hoechst 350-390 nm excitation and 460-490 nm emission filters) using an upright fluorescence microscope with Retiga imaging 2000R (Nikon Optiphot-2, 20× and 40×) and an image processing Nikon NIS-Elements V4.0 Qimaging software.

Compound | % Cell Survival [1] [%] | % Cell Survival [2] [%] | dark toxicity ([1]; TNBC cells, 24-hr treatment) | dark toxicity ranking [2] | dark toxicity ranking ([1]; TNBC cells) | dark toxicity [2] | Morphological Features [4] | other results
C=C(c1ccc(C(=O)O)cc1)c1cc2c(cc1C)C(C)(C)CCC2(C)C [Bexarotene, reference compound] | 111 | 110 | – | – | – | – | – | –
C=Cc1c(C)c2cc3nc(c4c5[nH]c(cc6nc(cc1[nH]2)C(C)=C6CC)c(C)c5C(=O)[C@@H]4C(=O)OC)[C@@H](CCC(=O)OC)[C@@H]3C [Methyl pheophorbide a, reference compound] | 21 | 3.4 | no significant dark response | Example 3>Example 5>MePheo>Example 6 | – | – | – | –
Zn(II)-13^1-Hexamethylenediaminyl-Biotinylchlorin e6 dimethyl ester [Example 3] | 16 | 15.4 | exhibited dark toxicity | Example 3>Example 5>MePheo>Example 6 | Example 3 (most phototoxic in the dark)>Example 1>Example 6>Example 5 | most phototoxic in the dark | – | –
C=Cc1c(C)c2cc3nc(c(CC(=O)OC)c4[nH]c(cc5nc(cc1[nH]2)C(C)=C5CC)c(C)c4C(=O)NCCCCCCNC(=O)CCCC[C@@H]1SC[C@@H]2NC(=O)N[C@@H]21)[C@@H](CCC(=O)OC)[C@@H]3C [Example 1, 13^1-Hexamethylenediaminyl-biotinylchlorin e6 dimethyl ester] | 8.1 | 4.2 | exhibited in vitro dark cytotoxicity at 5 μM concentration | – | Example 3 (most phototoxic in the dark)>Example 1>Example 6>Example 5 | no toxicity | – | phototoxicity at nanomolar concentrations ([1]; TNBC cells, 100 nM to 200 nM, light activation): showed a light-activation dose response; cell inhibition ([1]; TNBC cells, 100 nM, 5 min light dose (4.8 J cm^−2)): 60%; reduction in cell proliferation ([1]; TNBC cells, 200 nM, lowest light dose used): ~50%; cell survival in the absence of light ([1]; TNBC cells, 5 μM, 24-hr treatment, no light): 86%; dark toxicity ([2]; listed as Example l): no dark toxicity; increase of cell inhibition upon irradiation compared to methyl pheophorbide (MePheo) ([3]; colon cancer cells, upon irradiation): approximately 19%
O=C(O)CCCC[C@@H]1SC[C@@H]2NC(=O)N[C@@H]21 [Biotine, biotin, reference compound] | 116 | 99 | – | – | – | – | – | toxicity to colon cancer cells (cell viability assay) ([3]; in the dark and in the presence of light, concentration up to 50 μM): not toxic
13^1-Hexamethylenediaminyl-Biotinylchlorin e6 dimethyl ester indium (III) chloride [Example 5] | 56 | 12.9 | exhibited dark toxicity | Example 3>Example 5>MePheo>Example 6 | Example 3 (most phototoxic in the dark)>Example 1>Example 6>Example 5 | – | Cell debris apparent | decrease in cell proliferation of colon cancer cells ([3]; irradiation for 2 min, compared to MePheo, Example 1 or Example 3): 30%
13^1-Hexamethylenediaminyl-bexarotenylchlorin e6 dimethyl ester indium (III) chloride [Example 6] | 33 | 80 | exhibited dark toxicity | Example 3>Example 5>MePheo>Example 6 | Example 3 (most phototoxic in the dark)>Example 1>Example 6>Example 5 | – | Clustered cells, intact nuclei | –
13^1-Hexamethylenediaminyl-bexarotenylchlorin e6 dimethyl ester [Example 2] | 7.7 | 4.6 | – | – | – | – | – | –
Zn(II)-13^1-Hexamethylenediaminyl-bexarotenylchlorin e6 dimethyl ester [Example 4] | 108 | 105 | no significant dark response | – | – | no toxicity | Clustered cells, intact nuclei | –
